Tests used:
Type in all cases: in vivo
[1] = test system: foxtail, giant (Setaria faberii); assay: Test A postemergence, giant foxtail; settings: 0 to 100 scale
Summary of the method: (§1)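 Greenhouse pot test, loam/sand soil. Pre: directed soil spray at planting; post: foliar spray at 1–2 leaf stage (2–10 cm). Chemical in non-phytotoxic solvent + surfactant. Visual rating ~10 d, 0 = no effect, 100 = complete control.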

[2] = test system: foxtail, giant (Setaria faberii); assay: Test A preemergence, giant foxtail; settings: 0 to 100 scale
Summary of the method: as §1

[3] = test system: ragweed (common ragweed, Ambrosia elatior); assay: Test A preemergence, ragweed; settings: 0 to 100 scale
Summary of the method: as §1

[4] = test system: barnyardgrass (Echinochloa crus-galli); assay: Test A postemergence, barnyardgrass; settings: 0 to 100 scale
Summary of the method: as §1

[5] = test system: rice (Oryza sativa); assay: Test B flooded paddy test, rice; settings: Flood, 250 g ai/ha, applied to paddy water, 2-leaf stage, visual evaluation after 13 to 15 d
Summary of the method: (§2)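 Rating: 0 = no effect, 100 = complete control, visual, relative to untreated plants. Conditions: 2-leaf stage, 3 cm flood kept constant, compound put directly into water, 13–15 d greenhouse.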

[6] = test system: barnyardgrass (Echinochloa crus-galli); assay: Test B flooded paddy test, barnyardgrass; settings: Flood, 250 g ai/ha, applied to paddy water, 2-leaf stage, visual evaluation after 13 to 15 d
Summary of the method: as §2

[7] = test system: wheat (Triticum aestivum); assay: Test A postemergence, wheat; settings: 0 to 100 scale
Summary of the method: as §1

[8] = test system: ryegrass, Italian (Lolium multiflorum); assay: Test A preemergence, Italian ryegrass; settings: 0 to 100 scale
Summary of the method: as §1

[9] = test system: kochia (Kochia scoparia); assay: Test A postemergence, kochia; settings: 0 to 100 scale
Summary of the method: as §1

[10] = test system: corn (Zea mays); assay: Test A postemergence, corn; settings: 0 to 100 scale
Summary of the method: as §1

[11] = test system: barnyardgrass (Echinochloa crus-galli); assay: Test A preemergence, barnyardgrass; settings: 0 to 100 scale
Summary of the method: as §1

[12] = test system: ryegrass, Italian (Lolium multiflorum); assay: Test A postemergence, Italian ryegrass; settings: 0 to 100 scale
Summary of the method: as §1

[13] = test system: ducksalad (Heteranthera limosa); assay: Test B flooded paddy test, ducksalad; settings: Flood, 250 g ai/ha, applied to paddy water, 2-leaf stage, visual evaluation after 13 to 15 d
Summary of the method: as §2

[14] = test system: sedge, umbrella (small-flower umbrella sedge, Cyperus difformis); assay: Test B flooded paddy test, umbrella sedge; settings: Flood, 250 g ai/ha, applied to paddy water, 2-leaf stage, visual evaluation after 13 to 15 d
Summary of the method: as §2

[15] = test system: blackgrass (Alopecurus myosuroides); assay: Test A postemergence, blackgrass; settings: 0 to 100 scale
Summary of the method: as §1

[16] = test system: pigweed (Amaranthus retroflexus); assay: Test A preemergence, pigweed; settings: 0 to 100 scale
Summary of the method: as §1

[17] = test system: kochia (Kochia scoparia); assay: Test A preemergence, kochia; settings: 0 to 100 scale
Summary of the method: as §1

[18] = test system: galium (catchweed bedstraw, Galium aparine); assay: Test A postemergence, galium; settings: 0 to 100 scale
Summary of the method: as §1

[19] = test system: ragweed (common ragweed, Ambrosia elatior); assay: Test A postemergence, ragweed; settings: 0 to 100 scale
Summary of the method: as §1

[20] = test system: pigweed (Amaranthus retroflexus); assay: Test A postemergence, pigweed; settings: 0 to 100 scale
Summary of the method: as §1

SMILES | Plant response rating, Foxtail, Giant ([1]; 125 g ai/ha) | Plant response rating, Foxtail, Giant ([1]; 500 g ai/ha) | Plant response rating, Foxtail, Giant ([2]; 125 g ai/ha) | Plant response rating, Foxtail, Giant ([2]; 500 g ai/ha) | Plant response rating, Ragweed ([3]; 125 g ai/ha) | Plant response rating, Ragweed ([3]; 500 g ai/ha) | Plant response rating, Barnyardgrass ([4]; 125 g ai/ha) | Plant response rating, Barnyardgrass ([4]; 500 g ai/ha) | Plant response rating, Rice (0 to 100 scale, 0 is no effect, 100 is complete control) [5] | Plant response rating, Barnyardgrass (0 to 100 scale, 0 is no effect, 100 is complete control) [6] | Plant response rating, Wheat ([7]; 125 g ai/ha) | Plant response rating, Wheat ([7]; 500 g ai/ha) | Plant response rating, Ryegrass, Italian ([8]; 125 g ai/ha) | Plant response rating, Ryegrass, Italian ([8]; 500 g ai/ha) | Plant response rating, Kochia ([9]; 125 g ai/ha) | Plant response rating, Kochia ([9]; 500 g ai/ha) | Plant response rating, Corn ([10]; 125 g ai/ha) | Plant response rating, Corn ([10]; 500 g ai/ha) | Plant response rating, Barnyardgrass ([11]; 125 g ai/ha) | Plant response rating, Barnyardgrass ([11]; 500 g ai/ha) | other results
C[C@@H](Nc1ncc(C(F)(F)F)c(N)n1)c1cc2ccc(Cl)cc2o1 [Compound 29] | 0 | 50 | 60 | 90 | 20 | 80 | 20 | 80 | 0 | 0 | 0 | 0 | 20 | 70 | 50 | 90 | 0 | 10 | 0 | 90 | Plant response rating, Ryegrass, Italian ([12]; 125 g ai/ha): 0; Plant response rating, Ryegrass, Italian ([12]; 500 g ai/ha): 10; Plant response rating, Ducksalad (0 to 100 scale, 0 is no effect, 100 is complete control) [13]: 0; Plant response rating, Sedge, Umbrella (0 to 100 scale, 0 is no effect, 100 is complete control) [14]: 0; Plant response rating, Blackgrass ([15]; 125 g ai/ha): 0; Plant response rating, Blackgrass ([15]; 500 g ai/ha): 10; Plant response rating, Pigweed ([16]; 125 g ai/ha): 90; Plant response rating, Pigweed ([16]; 500 g ai/ha): 100; Plant response rating, Kochia ([17]; 125 g ai/ha): 0; Plant response rating, Kochia ([17]; 500 g ai/ha): 80; Plant response rating, Galium ([18]; 125 g ai/ha): 80; Plant response rating, Galium ([18]; 500 g ai/ha): 100; Plant response rating, Ragweed ([19]; 125 g ai/ha): 20; Plant response rating, Ragweed ([19]; 500 g ai/ha): 90; Plant response rating, Pigweed ([20]; 125 g ai/ha): 100; Plant response rating, Pigweed ([20]; 500 g ai/ha): 100
CC[C@H](COc1cc(C)cc(C)c1)Nc1ncc(C(F)(F)F)c(N)n1 [Compound 27] | 0 | 20 | 20 | 90 | 70 | 90 | 0 | 20 | 0 | 0 | 0 | 20 | 30 | 80 | 0 | 70 | 0 | 20 | 10 | 90 | Plant response rating, Ryegrass, Italian ([12]; 125 g ai/ha): 0; Plant response rating, Ryegrass, Italian ([12]; 500 g ai/ha): 0; Plant response rating, Ducksalad (0 to 100 scale, 0 is no effect, 100 is complete control) [13]: 0; Plant response rating, Sedge, Umbrella (0 to 100 scale, 0 is no effect, 100 is complete control) [14]: 50; Plant response rating, Blackgrass ([15]; 125 g ai/ha): 10; Plant response rating, Blackgrass ([15]; 500 g ai/ha): 50; Plant response rating, Pigweed ([16]; 125 g ai/ha): 10; Plant response rating, Pigweed ([16]; 500 g ai/ha): 80; Plant response rating, Kochia ([17]; 125 g ai/ha): 0; Plant response rating, Kochia ([17]; 500 g ai/ha): 40; Plant response rating, Galium ([18]; 125 g ai/ha): 90; Plant response rating, Galium ([18]; 500 g ai/ha): 90; Plant response rating, Ragweed ([19]; 125 g ai/ha): 20; Plant response rating, Ragweed ([19]; 500 g ai/ha): 90; Plant response rating, Pigweed ([20]; 125 g ai/ha): 60; Plant response rating, Pigweed ([20]; 500 g ai/ha): 90

Source: US20220119354A1, “DIAMINO-SUBSTITUTED PYRIDINES AND PYRIMIDINES AS HERBICIDES” (FMC Corporation, priority 2019, published 2022)
